The results in this text go back to patent publication US20260200939A1, “MOLECULAR GLUE DEGRADER COMPOUNDS AND USES THEREOF” (Novartis AG, priority 2022, published 2026).

The IC50 is the concentration at which inhibition is half-maximal. The DC50 is the midpoint of the concentration-degradation curve. Higher therefore signals degradation only at high concentration.

Like-named read-outs stand apart in the source and are kept apart here. A value given as a limit tells only on which side of the number the result lay.

Assay [1] has as its target T1, Recombinant RNF126 (Homo sapiens, UniProt Q9BV68).
T1 construct: FLAG (C); host or cells: HEK293T
Briefly: RNF126 Binding Assay, gel-based ABPP. As to the method:
RNF126 mammalian expression plasmid with a C-terminal FLAG tag was purchased from Origene (Origene Technologies Inc., RC204986). The plasmid was transformed into NEB 5-alpha Competent E. coli (DH5) cells (NEB product no. C2987H). The following day, a single transformed colony was used to inoculate 50 ml of nutrient rich LB medium containing kanamycin (50 μg/ml) and was incubated at 37° C. overnight, with agitation (250 rpm). A Miniprep (Qiagen) kit was used to isolate the plasmid before sequence verification with appropriate primers.
HEK293T cells were grown to 30-50% confluency in DMEM supplemented with 10% FBS (Corning) and maintained at 37° C. with 5% CO2. Immediately before transfection, media was replaced with DMEM containing 5% FBS. Each plate was transfected with 24 μg of overexpression plasmid with 24 μL Lipofectamine 3000 (Invitrogen) in Opti-MEM. After 48 h cells were collected in PBS, lysed by sonication, and batch bound with anti-DYKDDDDK resin (GenScript, L00432) for 2 hours. Lysate and resin were washed with PBS and eluted with 133.33 μg/ml 3×FLAG peptide (ApexBio, A6001) in PBS. Five elutions were performed for 15 minutes each. Elutions were concentrated and the protein was stored in PBS. Concentration and purity was determined using the BCA assay and western blotting.
Recombinant RNF126 ([…]) was pre-treated with either DMSO vehicle or covalent ligand at 37° C. for 30 min in 25 μL of PBS, and subsequently treated with of IA-Rhodamine (concentrations designated in figure legends) (Setareh Biotech) at room temperature for 1 h in the dark. The reaction was stopped by addition of 4×reducing Laemmli SDS sample loading buffer (Alfa Aesar). After boiling at 95° C. for 5 min, the samples were separated on precast 4-20% Criterion TGX gels (Bio-Rad). Probe-labeled proteins were analyzed by in-gel fluorescence using a ChemiDoc MP (Bio-Rad).

Assay [2] deals with T2, BRD4 short (Homo sapiens, UniProt O60885).
T2 construct: endogenous in cells; host or cells: HEK293T
As to the kind of experiment: BRD4 (short) degradation assay, Western blotting. Format: cell-based. The procedure, abridged:
(§1)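 Cell lines were grown at 37° C with 5% CO2 (HEK293T and C33A in DMEM, A549 in F-12K, 22RV1, LNCaP and Mino in RPMI-1640, K562 and MV-4-11 in IMDM, all with 10% FBS). Lysates were BCA-normalized, then SDS/PAGE Western blots were probed with target-specific antibodies and read by IR680/IR800 fluorescent secondaries on Li-Cor.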
For orientation: Immunoblotting shows a protein as a band on a membrane.

Assay [3] addresses T3, BRD4 long (Homo sapiens, UniProt O60885).
T3 construct: endogenous in cells; host or cells: HEK293T
As to the kind of experiment: BRD4 (long) degradation assay, Western blotting. Format: cell-based. In short, it runs like this: as §1

Where [4] appears, read: range with lower bound in nM and upper bound in μM.
Where [5] appears, read: second value of cell (long/short).
The mark [6] stands for this setting: first value of cell (long/short).
[7] abbreviates: second value of cell, range with lower bound in nM and upper bound in μM.
The mark [8] stands for this setting: first value of cell, range with lower bound in nM and upper bound in μM.

T1 sequence (Q9BV68 whole entry): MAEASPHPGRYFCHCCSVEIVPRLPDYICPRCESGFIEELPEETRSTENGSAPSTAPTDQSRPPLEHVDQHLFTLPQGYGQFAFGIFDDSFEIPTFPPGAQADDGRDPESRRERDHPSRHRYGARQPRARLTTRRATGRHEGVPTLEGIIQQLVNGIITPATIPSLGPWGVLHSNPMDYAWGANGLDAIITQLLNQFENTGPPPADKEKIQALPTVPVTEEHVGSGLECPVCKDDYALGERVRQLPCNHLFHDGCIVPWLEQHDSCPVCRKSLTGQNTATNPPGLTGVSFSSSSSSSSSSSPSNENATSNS

For `COc1ccc(C(=O)/C(C)=C/C(=O)N2CCNCC2)cc1` [Compound 145, (E)-1-(4-methoxyphenyl)-2-methyl-4-(piperazin-1-yl)but-2-ene-1,4-dione], in assay [1], the IC50 was above 50000 nM.

On to `COc1ccccc1C(=O)/C=C/C(=O)N1CCNCC1` [Compound 147, (E)-1-(2-methoxyphenyl)-4-(piperazin-1-yl)but-2-ene-1,4-dione], for which the IC50 in assay [1] fell in the range of 1000 to 10000 nM.

On to `O=C(/C=C/C(=O)N1CCNCC1)c1ccccc1F` [Compound 149, (E)-1-(2-fluorophenyl)-4-(piperazin-1-yl)but-2-ene-1,4-dione], for which the IC50 in assay [1] lay within 1000 to 10000 nM.

In the case of `O=C(/C=C/C(=O)N1CCNCC1)c1ccc(F)cc1` [Compound 150, (E)-1-(4-fluorophenyl)-4-(piperazin-1-yl)but-2-ene-1,4-dione], the IC50 in assay [1] fell in the range of 1000 to 10000 nM.

In the case of `O=C(/C=C/C(=O)N1CCNCC1)c1ccccc1` [Compound 152, (E)-1-phenyl-4-(piperazin-1-yl)but-2-ene-1,4-dione], the IC50 in assay [1] (setting [4]) lay within 100 to 1000 nM.

On to `COc1ccc(C(=O)/C=C(\C#N)C(=O)N2CCN(C(=O)OC(C)(C)C)CC2)cc1` [Compound 153, tert-butyl (E)-4-(2-cyano-4-(4-methoxyphenyl)-4-oxobut-2-enoyl)piperazine-1-carboxylate], for which the IC50 in assay [1] (setting [4]) is 100 to 1000 nM.

As to `CC(C)(C)OC(=O)N1CCN(C(=O)/C=C/C(=O)c2ccccc2Br)CC1` [Compound 154, tert-butyl (E)-4-(4-(2-bromophenyl)-4-oxobut-2-enoyl)piperazine-1-carboxylate], the IC50 in assay [1] (setting [4]) lay in the range of 100 to 1000 nM.

For `CC(C)(C)OC(=O)N1CCN(C(=O)/C=C/C(=O)c2cccc(F)c2)CC1` [Compound 155, tert-butyl (E)-4-(4-(3-fluorophenyl)-4-oxobut-2-enoyl)piperazine-1-carboxylate], the IC50 in assay [1] (setting [4]) lay within 100 to 1000 nM.

In the case of `COc1cccc(C(=O)/C=C/C(=O)N2CCN(C(=O)OC(C)(C)C)CC2)c1` [Compound 156, tert-butyl (E)-4-(4-(3-methoxyphenyl)-4-oxobut-2-enoyl)piperazine-1-carboxylate], the IC50 in assay [1] is below 100 nM.

For the molecule `Cc1cccc(C(=O)/C=C/C(=O)N2CCN(C(=O)OC(C)(C)C)CC2)c1` [Compound 157, tert-butyl (E)-4-(4-oxo-4-(m-toly1)but-2-enoyl)piperazine-1-carboxylate], the IC50 in assay [1] is below 100 nM.

Regarding `CC(C)(C)OC(=O)N1CCN(C(=O)/C=C/C(=O)c2ccccc2Cl)CC1` [Compound 161, tert-butyl (E)-4-(4-(2-chlorophenyl)-4-oxobut-2-enoyl)piperazine-1-carboxylate], in assay [1] (setting [4]), the IC50 lay in the range of 100 to 1000 nM.

Consider `CC(C)(C)OC(=O)N1CCN(C(=O)/C=C/C(=O)c2cccc(C(F)(F)F)c2)CC1` [Compound 162, tert-butyl (E)-4-(4-oxo-4-(3-(trifluoromethyl)phenyl)but-2-enoyl)piperazine-1-carboxylate], for which the IC50 in assay [1] is below 100 nM.

In the case of `CC(C)(C)OC(=O)N1CCN(C(=O)/C=C/C(=O)c2cccc(Br)c2)CC1` [Compound 163, tert-butyl (E)-4-(4-(3-bromophenyl)-4-oxobut-2-enoyl)piperazine-1-carboxylate], in assay [1], the IC50 was below 100 nM.

With `CC(C)(C)OC(=O)N1CCN(C(=O)/C=C/C(=O)c2ccc(Br)cc2)CC1` [Compound 164, tert-butyl (E)-4-(4-(4-bromophenyl)-4-oxobut-2-enoyl)piperazine-1-carboxylate], the IC50 in assay [1] was below 100 nM.

Regarding `COc1ccc(C(=O)/C=C(\C)C(=O)N2CCN(C(=O)OC(C)(C)C)CC2)cc1` [Compound 166, tert-butyl (E)-4-(4-(4-methoxyphenyl)-2-methyl-4-oxobut-2-enoyl)piperazine-1-carboxylate], the IC50 in assay [1] was 10000 to 50000 nM.

Take `Cc1sc2c(c1C)C(c1ccc(Cl)cc1)=N[C@@H](CC(=O)N[C@H]1C[C@@H](NC(=O)/C=C/C(=O)C(C)(C)C)C1)c1nnc(C)n1-2` [Compound 277, (E)-N-((1R,3s)-3-(2-((S)-4-(4-chlorophenyl)-2,3,9-trimethyl-6H-thieno[3,2-f][1,2,4]triazolo[4,3-a][1,4]diazepin-6-yl)acetamido)cyclobutyl)-5,5-dimethyl-4-oxohex-2-enamide]: the DC50 in assay [2] (setting [5]) and in assay [3] (setting [6]) was 10 to 100 nM throughout.

Take `Cc1sc2c(c1C)C(c1ccc(Cl)cc1)=N[C@@H](CC(=O)N[C@H]1C[C@H](NC(=O)/C=C/C(=O)C(C)(C)C)C1)c1nnc(C)n1-2` [Compound 278, (E)-N-((1S,3r)-3-(2-((S)-4-(4-chlorophenyl)-2,3,9-trimethyl-6H-thieno[3,2-f][1,2,4]triazolo[4,3-a][1,4]diazepin-6-yl)acetamido)cyclobutyl)-5,5-dimethyl-4-oxohex-2-enamide]: the DC50 in assay [2] (setting [5]) and in assay [3] (setting [6]) was 10 to 100 nM throughout.

Turning to `COc1ccc(/C=C/S(=O)(=O)N2CCN(C(=O)C[C@@H]3N=C(c4ccc(Cl)cc4)c4c(sc(C)c4C)-n4c(C)nnc43)CC2)cc1` [Compound 279, (S,E)-2-(4-(4-chlorophenyl)-2,3,9-trimethyl-6H-thieno[3,2-f][1,2,4]triazolo[4,3-a][1,4]diazepin-6-yl)-1-(4-((4-methoxystyryl)sulfonyl)piperazin-1-yl)ethan-1-one], the DC50 in assay [2] (setting [5]) and in assay [3] (setting [6]) was above 5000 nM in each case.

In the case of `Cc1sc2c(c1C)C(c1ccc(Cl)cc1)=N[C@@H](CC(=O)N[C@H]1C[C@H](NC(=O)/C=C/C(=O)c3ccc(Cl)cc3Cl)C1)c1nnc(C)n1-2` [Compound 281, (E)-N-((1S,3r)-3-(2-((S)-4-(4-chlorophenyl)-2,3,9-trimethyl-6H-thieno[3,2-f][1,2,4]triazolo[4,3-a][1,4]diazepin-6-yl)acetamido)cyclobutyl)-4-(2,4-dichlorophenyl)-4-oxobut-2-enamide], the DC50 in assay [2] (setting [7]) and in assay [3] (setting [8]) was 100 to 1000 nM each time.

With `Cc1sc2c(c1C)C(c1ccc(Cl)cc1)=N[C@@H](CC(=O)N[C@H]1C[C@H](NC(=O)/C=C/C(=O)c3cccc(Cl)c3Cl)C1)c1nnc(C)n1-2` [Compound 287, (E)-N-((1S,3r)-3-(2-((S)-4-(4-chlorophenyl)-2,3,9-trimethyl-6H-thieno[3,2-f][1,2,4]triazolo[4,3-a][1,4]diazepin-6-yl)acetamido)cyclobutyl)-4-(2,3-dichlorophenyl)-4-oxobut-2-enamide], the half-maximal degradation concentration (DC50) in assay [2] (setting [5]) and in assay [3] (setting [6]) was 1000 to 5000 nM each time.

Turning to `Cc1sc2c(c1C)C(c1ccc(Cl)cc1)=N[C@@H](CC(=O)N[C@H]1C[C@H](NC(=O)/C=C/C(=O)c3cc(Cl)ccc3Cl)C1)c1nnc(C)n1-2` [Compound 288, (E)-N-((1S,3r)-3-(2-((S)-4-(4-chlorophenyl)-2,3,9-trimethyl-6H-thieno[3,2-f][1,2,4]triazolo[4,3-a][1,4]diazepin-6-yl)acetamido)cyclobutyl)-4-(2,5-dichlorophenyl)-4-oxobut-2-enamide], the DC50 in assay [2] (setting [7]) and in assay [3] (setting [8]) was 100 to 1000 nM in each case.

With `CC(C)(C)OC(=O)N1CCN(C(=O)/C=C/C(=O)c2ccc3c(c2)OCCO3)CC1` [Compound 400, tert-butyl (E)-4-(4-(2,3-dihydrobenzo[b][1,4]dioxin-6-y1)-4-oxobut-2-enoy1)piperazine-1-carboxylate], the IC50 in assay [1] (setting [4]) lay within 100 to 1000 nM.

For the molecule `CC(C)(C)OC(=O)N1CCN(C(=O)/C=C/C(=O)c2ccc3c(c2)NC(=O)CO3)CC1` [Compound 401, tert-butyl (E)-4-(4-oxo-4-(3-oxo-3,4-dihydro-2H-benzo[b][1,4]oxazin-6-yl)but-2-enoyl)piperazine-1-carboxylate], the IC50 in assay [1] is below 100 nM.

In the case of `COc1ccc(C(=O)/C=C/C(=O)N2CCN(C(=O)OC(C)(C)C)CC2)cn1` [Compound 402, tert-butyl (E)-4-(4-(6-methoxypyridin-3-yl)-4-oxobut-2-enoyl)piperazine-1-carboxylate], in assay [1] (setting [4]), the IC50 is 100 to 1000 nM.

Consider `Cn1cc(C(=O)/C=C/C(=O)N2CCN(C(=O)OC(C)(C)C)CC2)ccc1=O` [Compound 403, tert-butyl (E)-4-(4-(1-methyl-6-oxo-1,6-dihydropyridin-3-y1)-4-oxobut-2-enoyl)piperazine-1-carboxylate], for which the IC50 in assay [1] (setting [4]) was in the range of 100 to 1000 nM.

Regarding `CC(C)(C)OC(=O)N1CCN(C(=O)/C=C/C(=O)c2ccc3c(c2)OCC3)CC1` [Compound 404, tert-butyl (E)-4-(4-(2,3-dihydrobenzofuran-6-yl)-4-oxobut-2-enoyl)piperazine-1-carboxylate], the IC50 in assay [1] is below 100 nM.
